Assay results from article PMC10375536, “Discovery of High-Affinity Amyloid Ligands Using a Ligand-Based Virtual Screening Pipeline” (Journal of the American Chemical Society, 2023).
Read-outs that look alike come from different tables or passages of the source.

Key:
Aβ(1-42) [1] = settings: cited from earlier work
Aβ(1–42) fibrils = target: T1, Aβ(1–42) fibrils (Homo sapiens, UniProt P05067); assay: Thioflavin T (ThT) fluorescence competition assay; assay type: binding; settings: for ThT displacement in competition screen: Aβ(1–42) fibrils (250 nM); for ThT displacement in competition screen / Kd: ThT (1.0 μM), 1× PBS pH 7.4, 25 °C; for Kd: Aβ(1–42) fibrils (500 nM)
T1 construct: Monomeric Aβ(1-42) (1 mg: Rockland Immunochemicals, Limerick, PA, Lot #31541); purchased Rockland Immunochemicals, Limerick, PA Lot #31541 (a lot number; no catalogue number given)

Aβ(1-42) [2] = settings: cited from earlier work; remark: listed apart in the source
[3] = average of fits from at least three independent experiments, read-out: Kd/nM
[4] = read-out: –log(Kd/M) (converted)
[5] = against [125I]IMSB, ref 10.1016/j.bmcl.2011.08.003
[6] = against [125I]BF-180, ref 10.1523/JNEUROSCI.1738-05.2005
[7] = against [125I]BF-180, ref 10.1385/JMN:24:2:247
[8] = against [3H]BF-227, ref 10.1177/1536012118796297
[9] = direct binding, ref 10.1007/s00259-012-2261-2
[10] = direct binding, ref 10.1021/jm010045q
[11] = against [125I]IMSB, ref 10.1021/jm010045q
[12] = against [125I]BF-180, ref 10.1523/JNEUROSCI.4456-03.2004

T1 sequence (P05067 672-713 limits assumed): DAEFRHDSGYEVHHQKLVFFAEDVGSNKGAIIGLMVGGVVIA

CN(C)c1ccc(-c2ccc3cc(-c4nc5ccccc5s4)c(=N)oc3c2)cc1 [ICTAD-1]
Kd (Aβ(1-42) [1]; direct binding, ref 10.1039/d0sc02060e): 3780 nM

CCOc1ccc(CCN(C)C(=O)Nc2ccc3c(c2)CCC(=O)N3C)cc1 [E363]
ThT displacement in competition screen (Aβ(1–42) fibrils): displaced the greatest quantity of ThT
Kd (Aβ(1–42) fibrils; [3]): 20 ± 10 nM
Kd (Aβ(1–42) fibrils; [4]): 25.1 nM

COc1cc(/C=C/C(=O)CC(=O)/C=C/c2ccc(O)c(OC)c2)ccc1O [Curcumin]
Ki (Aβ(1-42) [2]; [5]): 3.57 nM

CNc1ccc(-c2ccc3ccccc3n2)cc1 [BF-158]
Ki (Aβ(1-42) [2]; [6]): > 5000 nM

CN(C)c1ccc(-c2nc3ccc(I)cc3s2)cc1 [[125I]TZDM]
Kd (Aβ(1-42) [1]; direct binding, ref 10.1016/j.bmc.2011.03.029): 0.45 nM
Kd (Aβ(1-42) [1]; direct binding, ref 10.5012/bkcs.2008.29.9.1765): 0.13 nM

Nc1ccc(/C=C/c2nc3cc(F)ccc3o2)cc1 [BF-140]
Ki (Aβ(1-42) [2]; [7]): 2.1 nM

C#CCN(C)CCCOc1ccc(Cl)cc1Cl [Clorgyline]
Ki (Aβ(1-42) [2]; [8]): > 9000 nM

CNc1ccc(/C=C/c2nc3cc(F)ccc3o2)cc1 [BF-145]
Ki (Aβ(1-42) [2]; [7]): 4.5 nM

CCOc1ccccc1OCC(=O)Nc1ccc(-c2ncc3n2CCCC3)cc1 [E570]
ThT displacement in competition screen (Aβ(1–42) fibrils): displaced the greatest quantity of ThT
Kd (Aβ(1–42) fibrils; [3]): 20 ± 10 nM
Kd (Aβ(1–42) fibrils; [4]): 25.1 nM
bound ThT displaced (Aβ(1–42) fibrils; titration into Aβ(1–42) fibrils (500 nM) and ThT (1.0 μM)): about half

O=[N+]([O-])c1ccc2c(c1)Sc1cc(OC/C=C/I)ccc1N2 [[125I]SIL23]
Kd (Aβ(1-42) [1]; direct binding, ref 10.1371/journal.pone.0055031): 635 nM

CC(=C(C#N)C#N)c1ccc2cc(N(C)CCF)ccc2c1 [FDDNP]
Kd (Aβ(1-42) [1]; [9]): 5.52 nM

Cc1ccc(C)c2c(C)c(C(=O)N3CCCc4c(OCC(N)=O)cccc43)oc12 [E197]
ThT displacement in competition screen (Aβ(1–42) fibrils): displaced the greatest quantity of ThT
Kd (Aβ(1–42) fibrils; [3]): 600 ± 300 nM
Kd (Aβ(1–42) fibrils; [4]): 501 nM

COc1ccc(/C=C/c2ccc(/C=C/c3ccc(OC)c(C(=O)O)c3)c(I)c2)cc1C(=O)O [[125I]IMSB]
Kd (Aβ(1-42) [1]; [10]): 0.73 nM

O=C(O)c1cc(C=Cc2ccc(C=Cc3ccc(O)c(C(=O)O)c3)c(I)c2)ccc1O [[125]ISB]
Kd (Aβ(1-42) [1]; [10]): 0.15 nM

COc1cc(F)c(C(C)NC(=O)NCCN2c3ccccc3CC2C)cc1OC (stereo not shown) [E704]
ThT displacement in competition screen (Aβ(1–42) fibrils): displaced the greatest quantity of ThT
Kd (Aβ(1–42) fibrils; [3]): 56 ± 6 nM

CN(C)c1ccc(-c2nc3ccc(I)cc3s2)cc1 [TZDM]
Kd (Aβ(1-42) [1]; [10]): 0.14 nM
Ki (Aβ(1-42) [2]; [11]): > 5000 nM

CC(C)CC1=[O+][B-](F)(F)OC(/C=C/c2ccc3cc(N(C)C)ccc3c2)=C1 [NAP-OB]
Kd (Aβ(1-42) [1]; direct binding, ref 10.1016/j.bioactmat.2021.10.047): 0.62 nM

CN(C)c1ccc(-c2cc(-c3ccnc(Br)c3)[nH]n2)cc1 [[11C]MODAG-001]
Kd (Aβ(1-42) [1]; direct binding, ref 10.1007/s00259-020-05133-x): 20 nM

Oc1c(I)cc(Cl)c2cccnc12 [CQ]
Kd (Aβ(1-42) [1]; direct binding, ref 10.1016/j.bios.2017.06.030): 86 nM

Nc1ccc(-c2ccc3ccccc3n2)cc1 [BF-170]
Ki (Aβ(1-42) [2]; [6]): > 5000 nM

Cc1cc(/C=C/c2ccc(N(C)C)cc2)n2c1C=C1C=CC=[N+]1[B-]2(F)F [BAP-1]
Kd (Aβ(1-42) [1]; direct binding, ref 10.1021/cn3000058): 44.1 nM

CN(C)c1ccc(C=CC(=O)c2ccc(I)cc2)cc1 [[125I]DMIC]
Kd (Aβ(1-42) [1]; direct binding, ref 10.1016/j.bmc.2007.07.052): 4.2 nM

CNc1ccc(-c2nc3ccc(O)cc3s2)cc1F [Flutemetamol]
Ki (Aβ(1-42) [2]; [8]): 65 nM

CN(C)c1ccc(/C=C/c2nc3ccc(I)cc3[nH]2)cc1 [SBIM-3]
Kd (Aβ(1-42) [1]; direct binding, ref 10.1016/j.bmc.2013.02.054): 820 nM

O=C(O)c1cc(/N=N/c2ccc(-c3ccc(/N=N/c4ccc(O)c(C(=O)O)c4)cc3)cc2)ccc1O [CG]
Ki (Aβ(1-42) [2]; [5]): 0.43 nM
Ki (Aβ(1-42) [2]; [11]): 0.4 nM

CN(C)c1ccc(-c2ccc3cc(OCC(O)CF)ccc3n2)cc1 (stereo not shown) [THK-5105]
Kd (Aβ(1-42) [1]; direct binding, ref 10.2967/jnumed.112.117341): 35.9 nM

CNc1ccc(/C=C/c2nc3ccc(OCCF)cc3o2)cc1 [BF-168]
Ki (Aβ(1-42) [2]; [12]): 6.4 nM

CN(C)c1ncc(/C=C/c2nc3ccc(OCCF)cc3o2)s1 [BF-227]
Kd (Aβ(1-42) [1]; direct binding, ref 10.1177/1536012118796297): 15.7 nM
Kd (Aβ(1-42) [1]; two-site model, Site 1, ref 10.1007/s00259-012-2261-2): 1.72 nM
Kd (Aβ(1-42) [1]; two-site model, Site 1, ref 10.1016/j.ejphar.2009.06.042): 1.31 nM
Kd (Aβ(1-42) [1]; two-site model, Site 1, ref 10.1021/acs.molpharmaceut.8b00229): 0.82 nM
Kd (Aβ(1-42) [1]; two-site model, Site 2, ref 10.1007/s00259-012-2261-2): 56.1 nM
Kd (Aβ(1-42) [1]; two-site model, Site 2, ref 10.1016/j.ejphar.2009.06.042): 80 nM
Kd (Aβ(1-42) [1]; two-site model, Site 2, ref 10.1021/acs.molpharmaceut.8b00229): 125 nM
Ki (Aβ(1-42) [2]; [8]): 12 nM
Ki (Aβ(1-42) [2]; against [125I]BF-180, ref 10.2967/jnumed.106.037556): 4.3 nM

CN(C)c1ccc(/C=C/c2ccc3ccc(OCCF)cc3n2)cc1 [SQ3]
Ki (Aβ(1-42) [2]; against [125I]ISQ, ref 10.1021/acsmedchemlett.2c00279): 230 nM

CCN(CC)c1ccc(/C=C/c2nc3ccccc3o2)cc1 [BF-125]
Ki (Aβ(1-42) [2]; [12]): 4.9 nM

Cc1ccc2c(c1)sc(-c1ccc(N(C)C)cc1)[n+]2C [ThT, Thioflavin T]
Kd (Aβ(1-42) [1]; direct binding, ref 10.1002/chem.201800501): 665 nM
Kd (Aβ(1-42) [1]; direct binding, ref 10.1016/j.bmc.2011.09.065): 2560 nM
Kd (Aβ(1-42) [1]; direct binding, ref 10.1021/acs.analchem.2c02532): 117 nM
Kd (Aβ(1-42) [1]; direct binding, ref 10.1021/acs.jmedchem.5b00571): 32 nM
Kd (Aβ(1-42) [1]; direct binding, ref 10.1021/acschemneuro.6b00380): 1940 nM
Kd (Aβ(1-42) [1]; direct binding, ref 10.1021/acschemneuro.6b00450): 430 nM
Ki (Aβ(1-42) [2]; [11]): > 4000 nM

CC1(C)C(/C=C/C2=C(c3ccc(CCC(=O)O)cc3)C(=C/C=C3/N(CCC[N+](C)(C)C)c4ccc(S(=O)(=O)O)cc4C3(C)C)/CCC2)=[N+](CCC[N+](C)(C)C)c2ccc(S(=O)(=O)O)cc21 [ZW800-1C]
Kd (Aβ(1-42) [1]; direct binding, ref 10.1038/s41551-023-01003-7): 78.9 nM

CN(C)c1ccc(/N=N/c2nc3ccc(OCCOCCOCCF)cc3s2)cc1 [FPPDB]
Ki (Aβ(1-42) [2]; against ThS, ref 10.1021/ml200230e): 20 nM

COCCOCCn1c2ccccc2c2cc(/C=C/c3cc[n+](C)c4ccccc34)ccc21 [SLM]
Kd (Aβ(1-42) [1]; direct binding, ref 10.1021/acsomega.8b00475): 11400 nM

Cc1c(OCC(F)(F)F)ccnc1C[S+]([O-])c1nc2ccccc2[nH]1 (stereo not shown) [LNS]
Kd (Aβ(1-42) [1]; direct binding, ref 10.1021/cn500103u): 11 nM

CNc1ccc(/C=C/c2nc3cc(I)ccc3o2)cc1 [BF-180]
Kd (Aβ(1-42) [1]; direct binding, ref 10.1523/JNEUROSCI.4456-03.2004): 10.6 nM

CNc1ccc(/C=C/c2ccc(OCCOCCOCCF)nc2)cc1 [AV-45, Florbetapir]
Ki (Aβ(1-42) [2]; [8]): 12 nM

CN(C)c1ccc(/N=N/c2nc3ccc(OCCOCCOCCF)cc3s2)cc1 [[18F]FPPDB]
Kd (Aβ(1-42) [1]; direct binding, ref 10.1021/ml200230e): 45.4 nM

Cc1cc(-c2ccc(/N=N/c3ccc4c(S(=O)(=O)O)cc(S(=O)(=O)O)c(N)c4c3O)c(C)c2)ccc1/N=N/c1ccc2c(S(=O)(=O)O)cc(S(=O)(=O)O)c(N)c2c1O [Honson2b (Evan's blue), Evan's blue]
Ki (Aβ(1-42) [2]; against ThS, ref 10.1016/j.nbd.2007.07.018): 180 nM

CNc1ccc(-c2cc3cc(O)ccc3o2)c(F)n1 [Flutafuranol]
Ki (Aβ(1-42) [2]; [8]): 42 nM

CN(CCCCc1ccccc1)C(=O)Nc1ccc2c(c1)OCC(=O)N2C [E163]
ThT displacement in competition screen (Aβ(1–42) fibrils): displaced the greatest quantity of ThT
Kd (Aβ(1–42) fibrils; [3]): 200 ± 100 nM
Kd (Aβ(1–42) fibrils; [4]): 158 nM

COc1ccc(C=Cc2ccc(C=Cc3ccc(OC)c(C(=O)O)c3)c(I)c2)cc1C(=O)O [IMSB]
Kd (Aβ(1-42) [1]; direct binding, ref 10.1021/ja0167147): 0.73 nM
Ki (Aβ(1-42) [2]; [11]): 0.8 nM

Nc1ccc(-c2ccc3cc(OCCF)ccc3n2)cc1 [THK-523]
Kd (Aβ(1-42) [1]; [9]): 30.3 nM
Kd (Aβ(1-42) [1]; direct binding, ref 10.1093/brain/awr038): 20.7 nM

COCCOCCOCCOC(=O)/C(C#N)=C/c1ccc2cc(N3CCCCC3)ccc2c1 [ANCA-11]
Kd (Aβ(1-42) [1]; direct binding, ref 10.1021/cn200018v): 1400 nM
